Test results taken from ChEMBL document CHEMBL1129551, “All-atom models for the non-nucleoside binding site of HIV-1 reverse transcriptase complexed with inhibitors: a 3D QSAR approach” (J Med Chem, 1996).

target: Human immunodeficiency virus type 1 reverse transcriptase (Human immunodeficiency virus 1, UniProt Q72547); assay: Inhibitory activity against HIV-1 reverse transcriptase

IC50 [µM]	SMILES
2.7	CCN1c2ncccc2-c2ncc(C)n2-c2ccc(N3CC=CCC3)nc21
12.2	CCN1c2ncccc2-c2ncc(C)n2-c2c(C)cc(=O)[nH]c21
3.9	CCN1c2ncccc2-c2nccn2-c2ccc(N3CC=CCC3)nc21
5.63	CCc1nc2n(c1C)-c1cccnc1N(CC)c1ncccc1-2
